One data set deals with Cynomolgus monkey. The conditions noted are these: in vivo, po, 10 mg/kg.
Data set [1] can be described thus: Dissociation constant, pKa of the compound. Type of data set: physicochemical.
A short description of a further data set: in vivo. As to conditions: rat, iv.
The nature of data set [2]: AUC in female rat at 2000 mg/kg/day, iv. The format is ADME, organism-based. Details: route intravenous. As to conditions: plasma.
The nature of data set [3]: AUC in female dog at 250 mg/kg/day, iv. The format is ADME, organism-based, Canis lupus familiaris. Details: route intravenous. The conditions noted are these: plasma.
Data set [4] is described as follows: AUC in male dog at 250 mg/kg/day, iv. Type of data set: ADME, organism-based, Canis lupus familiaris. Also noted: route intravenous. The conditions noted are these: plasma.
Data set [5] in a line: AUC in male rat at 2000 mg/kg/day, iv. The format is ADME, organism-based. Details: route intravenous. The conditions noted are these: plasma.

In the data set on Cynomolgus monkey, `Cc1nc2ccccc2n1C1CC2CCC(C1)N2CCC1(c2cccc(F)c2)CCN(C(=O)c2cc(NS(C)(=O)=O)c(F)cc2Cl)CC1` (centres undefined) came in with an AUC/dose of 59 ng·h/mL.

In the case of `Cc1nc2ccccc2n1[C@H]1C[C@H]2CC[C@@H](C1)N2CCC1(c2ccccc2)CCN(C(=O)C(C)(C)C)CC1`, in data set [1], the pKa came to 10.7.

With `Cc1nc2ccccc2n1C1CC2CCC(C1)N2CC(=O)C1(c2ccccc2)CCN(C(=O)C(C)(C)C)CC1` (centres undefined), the pKa in data set [1] was found to be 6.37.

In turn, `Cc1nc2ccccc2n1C1CC2CCC(C1)N2CCC1(c2cccc(F)c2)CCN(C(=O)C(C)(C)C)CC1` (centres undefined) came in with a clearance in the data set “in vivo” of 24 mL/min/kg.

With `Cc1nc2ccccc2n1C1CC2CCC(C1)N2CCC1(c2cccc(F)c2)CCN(C(=O)C2(C(=O)O)CCC2)CC1` (centres undefined), the clearance in the data set “in vivo” was 136 mL/min/kg.

Consider `Cc1nc2ccccc2n1C1CC2CCC(C1)N2CCC1(c2ccccc2)CCN(C(=O)c2ccccc2C(=O)O)CC1` (centres undefined), for which the clearance in “in vivo” amounted to 114 mL/min/kg.

In turn, `Cc1nc2ccccc2n1C1CC2CCC(C1)N2CCC1(c2ccccc2)CCN(C(=O)c2cccc(C(=O)O)c2)CC1` (centres undefined) registered a clearance in “in vivo” of 62 mL/min/kg.

Consider `Cc1nc2ccccc2n1C1CC2CCC(C1)N2CCC1(c2ccccc2)CCN(C(=O)C(C)(C)c2nnn[nH]2)CC1` (centres undefined), for which the clearance in “in vivo” was 156 mL/min/kg.

In the case of `Cc1nc2ccccc2n1C1CC2CCC(C1)N2CCC1(c2ccccc2)CCN(C(=O)C(C)(C)C(=O)NS(C)(=O)=O)CC1` (centres undefined), the clearance in the data set “in vivo” stood at 53 mL/min/kg.

`Cc1nc2ccccc2n1C1CC2CCC(C1)N2CCC1(c2ccccc2)CCN(C(=O)c2ccc3c(c2)CC(=O)NS3(=O)=O)CC1` (centres undefined) had a clearance in the data set “in vivo” of 26 mL/min/kg.

With `Cc1nc2ccccc2n1C1CC2CCC(C1)N2CCC1(c2ccccc2)CCN(C(=O)c2ccc(Cl)c(S(N)(=O)=O)c2)CC1` (centres undefined), the clearance in the data set “in vivo” amounted to 31 mL/min/kg.

Consider `Cc1nc2ccccc2n1C1CC2CCC(C1)N2CCC1(c2cccc(F)c2)CCN(C(=O)c2ccc(Cl)c(S(N)(=O)=O)c2)CC1` (centres undefined), for which the clearance in “in vivo” was 26.8 mL/min/kg.

Regarding `Cc1cccc(C2(CCN3C4CCC3CC(n3c(C)nc5ccccc53)C4)CCN(C(=O)c3ccc(Cl)c(S(N)(=O)=O)c3)CC2)c1` (centres undefined), the clearance in “in vivo” is 28.3 mL/min/kg.

As for `CNS(=O)(=O)c1cc(C(=O)N2CCC(CCN3C4CCC3CC(n3c(C)nc5ccccc53)C4)(c3cccc(F)c3)CC2)c(Cl)cc1F` (centres undefined), the AUC in data set [2] was determined as 160 µg·h/mL; in data set [3] it was 34900 ng·h/mL; in data set [4] it was 17200 ng·h/mL; in data set [5], 77000 ng·h/mL. In the data set on Cynomolgus monkey, this compound returned an AUC/dose of 38 ng·h/mL.

In the case of `Cc1nc2ccccc2n1C1CC2CCC(C1)N2CCC1(c2cccc(F)c2)CCN(C(=O)c2c(F)ccc(NS(C)(=O)=O)c2F)CC1` (centres undefined), the AUC/dose with Cynomolgus monkey is 19.9 ng·h/mL.

For orientation: pKa means the pH at which an ionisable group is half protonated. For orientation: clearance means a measure of how efficiently the substance is removed, as volume per time. As a reminder, the AUC is concentration integrated over time.

These data come from ChEMBL document CHEMBL1781974, “Novel 4,4-disubstituted piperidine-based C-C chemokine receptor-5 inhibitors with high potency against human immunodeficiency virus-1 and an improved human ether-a-go-go related gene (hERG) profile” (J Med Chem, 2011).
